We go through one compound from patent US20160287553A1, “TRANSLATION INHIBITORS IN HIGH-DOSE CHEMO- AND/OR HIGH-DOSE RADIOTHERAPY” (DEUTSCHES KREBSFORSCHUNGSZENTRUM, priority 2013, published 2016).

In test [1] the test system is human peripheral blood B cells. The test is described as follows: Etoposide-induced apoptosis in B cells. To be noted: B cells (FIG. 1c). In kind it is cell-based. On the procedure:
(§1) DNA fragmentation was determined by FACS.
(§2) Next, we asked whether Roc-A could also protect other normal primary cells from DNA damage-induced toxicity. To address this question, we examined the protective effect of Roc-A on Etoposide-treated human peripheral blood B cells, NK cells, neutrophils, cardiomyocytes and murine hematopoietic stem and progenitor cells (HSPCs).

Test [2] concerns neutrophils. The test is described as follows: Etoposide-induced apoptosis in neutrophils. It is filed as cell-based, human. Particulars: neutrophils (FIG. 1c). The protocol:
as §1, §2

Test [3] concerns cardiomyocytes. The test is described as follows: Etoposide-induced apoptosis in cardiomyocytes. It is filed as cell-based, human. Particulars: cardiomyocytes (FIG. 1c). On the procedure: as §1, §2
For test [4], the system named is murine hematopoietic stem and progenitor cells (HSPCs). Description: Etoposide-induced apoptosis in hematopoietic stem and progenitor cells. It is filed as cell-based, mouse. To be noted: HSPCs (FIG. 1c). On the procedure:
as §1
To perform lineage depletion, bone marrow cells were incubated on ice for 40 minutes with rat monoclonal antibodies against common epitopes expressed on mature blood and bone marrow cells (CD11b (M1/70), Gr-1 (RB6.8C5), CD4 (GK1.5), CD8a (53.6.7), Ter119 (Ter119) and B220 (RA3-6B2)). Subsequently, cells were washed and incubated for 15 minutes on ice with anti-rat IgG-coated Dynabeads (4.5 μm supermagnetic polystyrene beads, Invitrogen), 1 ml of beads per 3×10^8 bone marrow cells. Cells expressing lineage markers were depleted using a magnet and the remaining lineage-negative cells were isolated and washed. To provide optimal conditions for HSPCs in downstream experiments lineage-negative hematopoietic stem and progenitor-enriched cells were cultured in StemPro®-34 serum-free medium (Invitrogen, Darmstadt, Germany) supplemented with nutrient supplement (Invitrogen, Darmstadt, Germany) as well as recombinant TPO (50 ng/ml, (Peprotech, Hamburg, Germany)), SCF (50 ng/ml, (Peprotech, Hamburg, Germany)) and Flt3-ligand (50 ng/ml, (Peprotech, Hamburg, Germany)).
Next, we asked whether Roc-A could also protect other normal primary cells from DNA damage-induced toxicity. […]

The test system of test [5] is p53-knockdown T cells. Description: Etoposide-induced cell death in p53 siRNA knock-down T cells. It is filed as cell-based, human. To be noted: Etoposide 50 μM, Roc-A 75 nM, 24 h (FIG. 4a). The protocol: as §1
siRNAs specific for p53 mRNA was 5′-[…]tt-3′ (SEQ ID NO: 1; [Applied Biosystems, Darmstadt, Germany]). 1.5×10^7 human peripheral blood T cells were transfected with 2 μM of p53 siRNA or of scrambled siRNA (Qiagen, Hilden, Germany) using Amaxa Human T Cell Nucleofector Kit (Lonza, Basel, Switzerland) according to the manufacturer's instructions. The Amaxa Nucleofector program U-014 was used for transfection.
To further investigate the role of p53 in Roc-A-mediated protection of T cells against DNA damage-induced apoptosis, we performed a p53 knock-down experiment using a siRNA approach (FIG. 4a, upper panel). […] Therefore, we examined the effect of Roc-A on p53 knock-out (KO) cells.

For test [6], the system named is L1236 (Hodgkin's lymphoma), p53 mutated. Description: Etoposide-induced cell death in L1236. It is filed as cell-based, human. To be noted: L1236 (FIG. 5a). On the procedure: as §1
(§3) Since Roc-A-mediated protection of non-malignant cells from DNA-damage-induced cell death is largely p53-dependent, we predicted that Roc-A would not protect cancer cells which have non-functional p53. […] 1997; 19: 243-253), Reh (Zhou et al, loc cit.), SKW6.4 (Barbarotto et al., J Cell Biochem. 2008; 104: 595-605) and NCI-H209 (Fujita et al. Int J Oncol. 1999; 15: 927-934) which have a WT p53 protein.

The subject of test [7] is DND-41 (T cell leukemia), p53 mutated. The test is described as follows: Etoposide-induced cell death in DND-41. It is filed as cell-based, human. Particulars: DND-41 (FIG. 5a). On the procedure:
as §1, §3

The subject of test [8] is EU-3 (acute lymphoblastic leukemia), WT p53. Description: Etoposide-induced cell death in EU-3. In kind it is cell-based, human. Particulars: EU-3 (FIG. 5b). On the procedure:
as §1, §3

The test system of test [9] is SKW6.4 (B cell leukemia), WT p53. Description: Etoposide-induced cell death in SKW6.4. In kind it is cell-based, human. To be noted: SKW6.4 (FIG. 5b). On the procedure: as §1, §3
Test [10] concerns IM-9 (Chronic myeloid leukemia), WT p53. Description: Etoposide-induced cell death in IM-9. In kind it is cell-based, human. Particulars: IM-9 (FIG. 5b). The protocol:
as §1, §3

For test [11], the system named is protein synthesis in T cells. Description: Translation assay: [35S]methionine incorporation in T cells. In kind it is cell-based, human. To be noted: T cells (FIG. 6b). On the procedure: The relative amount of protein synthesis was determined by measuring the amount of incorporation of ^35S-methionine into the protein. Briefly, cells were pre-cultured in methionine-free medium (supplemented with 10% dialyzed FCS) for 3 h, followed by incubation with 3.5 μCi of ^35S-methionine-labeling mix (PerkinElmer, Waltham, Mass., USA) per 8×10^5 cells for 6 h as indicated. After the treatment, cells were washed twice with ice-cold PBS and lysed in RIPA buffer. 50 μl of each lysate were added to 1 ml of Liquid Scintillation Cocktail solution (Beckman Coulter, Brea, Calif., USA) and the amount of incorporated radioactivity was determined by liquid scintillation counting.
Roc-A has been well documented to inhibit protein translation (Polier et al., Chem Biol. 2012; 19: 1093-1104; Sadlish et al., ACS Chem Biol. 2013; doi:10.1021/cb400158t; Bleumink et al., Cell Death Differ. 2011; 18: 362-370; Cencic et al., PloS one. 2009; 4: e5223). Thus, we expected that Roc-A-mediated suppression of genotoxin-induced p53 upregulation may be regulated by inhibition of p53 protein synthesis.

For test [12], the system named is malignant cells. The test is described as follows: Fold change in cell death on raising the Etoposide dose, malignant cells (FIG. 9a-b). It is filed as cell-based. To be noted: 75 nM Roc-A in parallel to Etoposide, 6.25 μM to 50 μM, 24 h. The protocol:
(a) Cells from (b) were grouped into malignant and non-malignant cells. Shown are means of three independent experiments. Abbreviations; HSPCs=hematopoietic stem and progenitor cells. (c-d) Malignant and non-malignant cells were exposed to ionizing radiation (IR) in the presence of 75 nM Roc-A or solvent (DMSO) and cell death was determined after 24 h by DNA fragmentation. Depicted is the fold-change in cell death that was measured when doses of IR were increased from 2 Gy to 10 Gy. (c) Cells from (d) were grouped into malignant and non-malignant cells. Shown are means of three independent experiments.
as §1
Roc-A specifically prevents the cause of chemotherapeutic and radiation-induced side-effects, i.e., the death of healthy cells. […] Consequently, high-dose therapy is not possible, as side effects would be too high.

Test [13] relates to ERK. Particulars: Polier et al., op. cit.; cited from earlier work.

Regarding `COc1ccc([C@@]23Oc4cc(OC)cc(OC)c4[C@]2(O)[C@H](O)[C@H](C(=O)N(C)C)[C@H]3c2ccccc2)cc1` [Roc-A, (1R,2R,3S,3aR,8bS)-1,8b-dihydroxy-6,8-dimethoxy-3a-(4-methoxyphenyl)-N,N-dimethyl-3-phenyl-2,3-dihydro-1H-cyclopenta[b][1]benzofuran-2-carboxamide], the “Protection against Etoposide-induced apoptosis” value in test [1], in [2], in test [3] and in test [4] was “protected” throughout. The “Etoposide-induced apoptosis in p53-knockdown cells” value in [5] was “could still further down-regulate Etoposide-induced apoptosis in p53-knockdown cells”. Further, the “Protection against Etoposide-induced cell death” value in [6] is “did neither protect”; in test [7] it was “did neither protect”; in [8], “protected by Roc-A from Etoposide-induced cell death but to a lesser extent than non-malignant cells”; in test [9], “protected by Roc-A from Etoposide-induced cell death but to a lesser extent than non-malignant cells”; in test [10], “protected by Roc-A from Etoposide-induced cell death but to a lesser extent than non-malignant cells”. The “Inhibition of [35S]methionine incorporation (protein translation)” value in test [11] is “inhibited [^35S]methionine incorporation at different degrees”. In addition, the “Change in cell death on increased Etoposide doses with Roc-A” value in test [12] is “increased cell death in malignant cells”. In addition, in test [13], the “Inhibitory effect on ERK activity / activation” value is given as “inhibit ERK activation with different efficacies”.
